Experimental data from US8071119B2, “Controlled release implantable dispensing device and method” (Sustained Nano Systems LLC, priority 2007, dated 2011).
Like-named read-outs stand apart in the source and are kept apart here.

Columns and labels:
[1] = longer term subconjunctival implantation of pellets in rabbit ocular tissues (HPLC tissue levels, histology); format: in vivo; conditions: other: subconjunctival implantation of a pellet, 13 weeks after implantation in right eye, 301,568 psi pellet
Method: A study was performed to assess the effects of longer term implantation of cylindrical pellets compressed at 301,568 psi, measuring 5 mm length×3 mm diameter, in rabbit ocular tissues. A new 3-mm diameter mold (prepared and adapted to fit/interchange with the supporting hardware of the 7.87 mm diameter mold) was utilized to prepare the smaller pellets required for the rabbit eye. Due to dimensional considerations and the need to reconcile with the pressure applied for preparing the pellets and the mechanical tolerance of the mold, the incremental pressurization approach, described above was utilized, an initial pressure of 1000 lb was applied; thereafter, ˜500 lb of additional pressure was applied approximately every 5 minutes until it reached about 300,000 psi range. The height of the pellets (cylinders) produced were about 5 mm. The pressure noted was 301,568 psi. Similar to the pig model as described above, the pellets were implanted beneath the conjunctiva in the superotemporal quadrant of the right eyes. At stipulated time-points, the rabbits were euthanized to harvest the ocular tissues. Accordingly, the implant sites were dissected out and the rest of the tissues were further separated into: sclera/conjunctiva, cornea and lens. FIG. 7 depicts the histology (cryosectioned, H&E stained) of an implant site 9 weeks post-op.
The dexamethasone levels in rabbit ocular tissue is determined after 13 weeks and is reported in nanograms of dexamethasone per mg of tissue in Table 1. The sclera/conjunctiva, cornea and lens are recovered, processed, and extracted. Dexamethasone levels are determined by HPLC assay. Table 1 reports the dexamethasone recovered from the rabbit ocular tissues after 13 weeks of implantation, which is the longest duration for this study series.

[2] = dexamethasone levels after subconjunctival implantation in pig eyes; format: in vivo; conditions: pigs, after subconjunctival implantation of the 211,685 psi disc
Method: A cylindrical shaped dosage form is made using dexamethasone and the polymer system was prepared as described above. The dosage form measures 7.87 mm in diameter, has a thickness of 1 mm, a weight of 60 mg and a drug loading of 6.5%. […] The dosage form is placed beneath the conjunctiva in the super temporal quadrant of the eyes of five pigs. […]

concentration at 13 weeks ([1]; left lens (eye without implant), read-out: dexamethasone level in Left Lens): 18300 ng/g
concentration at 13 weeks ([1]; left sclera/conjunctiva (eye without implant), read-out: dexamethasone level in Left Sclera/Conjunctiva): 20300 ng/g
concentration at 13 weeks ([1]; right cornea (implanted eye), read-out: dexamethasone level in Right Cornea): 40400 ng/g
concentration at 13 weeks ([1]; right lens (implanted eye), read-out: dexamethasone level in Right Lens): 78100 ng/g
concentration at 13 weeks ([1]; right sclera/conjunctiva (implanted eye), read-out: dexamethasone level in Right Sclera/Conjunctiva): 415000 ng/g
dexamethasone in plasma [2]: no detectable dexamethasone
Compound: C[C@@H]1C[C@H]2[C@@H]3CCC4=CC(=O)C=C[C@]4(C)[C@@]3(F)[C@@H](O)C[C@]2(C)[C@@]1(O)C(=O)CO [dexamethasone]
